System: MDA-MB-435
Experiment: Growth inhibition of human MDA-MB-435 cells incubated for 48 hrs by sulforhodamine B assay
Assay type: functional, cell-based
Details: MDA-MB-435, 48 h, read-out: TGI

Row | Compound | TGI
1 | COc1cc(Cl)cc(-c2nn(-c3cccc(NC(=O)Nc4ccc(Cl)c(Cl)c4)c3)cc2-c2ccncc2)c1 | 60 µM

Same assay, conditions: MDA-MB-435, 48 h, read-out: pGI50 (converted)

Row | Compound | GI50
2 | COc1cc(Cl)cc(-c2nn(-c3cccc(NC(=O)Nc4ccc(Cl)c(Cl)c4)c3)cc2-c2ccncc2)c1 | 2.09 µM

Same assay, conditions: MDA-MB-435, 48 h, read-out: pLC50 (converted)

Row | Compound | LC50
3 | COc1cc(Cl)cc(-c2nn(-c3cccc(NC(=O)Nc4ccc(Cl)c(Cl)c4)c3)cc2-c2ccncc2)c1 | > 100 µM

Same assay, conditions: MDA-MB-435, 48 h, read-out: pTGI (converted)

Row | Compound | TGI
4 | COc1cc(Cl)cc(-c2nn(-c3cccc(NC(=O)Nc4ccc(Cl)c(Cl)c4)c3)cc2-c2ccncc2)c1 | 6.03 µM

System: UO-31
Experiment: Growth inhibition of human UO31 cells assessed as cell growth at 1 uM incubated for 48 hrs by sulforhodamine B assay relative to control
Assay type: functional
Details: UO-31, 48 h, read-out: Activity

Row | Compound | growth at 1 µM
5 | COc1cc(Cl)cc(-c2nn(-c3cccc(NC(=O)Nc4ccc(Cl)c(Cl)c4)c3)cc2-c2ccncc2)c1 | 88%

System: SW-620
Experiment: Growth inhibition of human SW620 cells assessed as cell growth at 0.1 uM incubated for 48 hrs by sulforhodamine B assay relative to control
Assay type: functional
Details: SW-620, 48 h, read-out: Activity

Row | Compound | growth at 0.1 µM
6 | COc1cc(Cl)cc(-c2nn(-c3cccc(NC(=O)Nc4ccc(Cl)c(Cl)c4)c3)cc2-c2ccncc2)c1 | 97%

System: LOX IMVI
Experiment: Growth inhibition of human LOXIMVI cells assessed as cell growth at 1 uM incubated for 48 hrs by sulforhodamine B assay relative to control
Assay type: functional
Details: read-out: Activity

Row | Compound | growth at 1 µM
7 | COc1cc(Cl)cc(-c2nn(-c3cccc(NC(=O)Nc4ccc(Cl)c(Cl)c4)c3)cc2-c2ccncc2)c1 | 91%

System: K562
Experiment: Growth inhibition of human K562 cells assessed as cell growth at 100 uM incubated for 48 hrs by sulforhodamine B assay relative to control
Assay type: functional
Details: K562, 48 h, read-out: Activity

Row | Compound | growth at 100 µM
8 | COc1cc(Cl)cc(-c2nn(-c3cccc(NC(=O)Nc4ccc(Cl)c(Cl)c4)c3)cc2-c2ccncc2)c1 | 3%

System: SK-OV-3
Experiment: Growth inhibition of human SKOV3 cells incubated for 48 hrs by sulforhodamine B assay
Assay type: functional, cell-based
Details: SK-OV-3, 48 h, read-out: GI50

Row | Compound | GI50
9 | COc1cc(Cl)cc(-c2nn(-c3cccc(NC(=O)Nc4ccc(Cl)c(Cl)c4)c3)cc2-c2ccncc2)c1 | 3.5 µM

Same assay, conditions: SK-OV-3, 48 h, read-out: LC50 (the source's name)

Row | Compound | CC50
10 | COc1cc(Cl)cc(-c2nn(-c3cccc(NC(=O)Nc4ccc(Cl)c(Cl)c4)c3)cc2-c2ccncc2)c1 | > 100 µM

Same assay, conditions: SK-OV-3, 48 h, read-out: TGI

Row | Compound | TGI
11 | COc1cc(Cl)cc(-c2nn(-c3cccc(NC(=O)Nc4ccc(Cl)c(Cl)c4)c3)cc2-c2ccncc2)c1 | 57 µM

Same assay, conditions: SK-OV-3, 48 h, read-out: pGI50 (converted)

Row | Compound | GI50
12 | COc1cc(Cl)cc(-c2nn(-c3cccc(NC(=O)Nc4ccc(Cl)c(Cl)c4)c3)cc2-c2ccncc2)c1 | 3.63 µM

Same assay, conditions: SK-OV-3, 48 h, read-out: pLC50 (the source's name) (converted)

Row | Compound | CC50
13 | COc1cc(Cl)cc(-c2nn(-c3cccc(NC(=O)Nc4ccc(Cl)c(Cl)c4)c3)cc2-c2ccncc2)c1 | > 100 µM

Same assay, conditions: SK-OV-3, 48 h, read-out: pTGI (converted)

Row | Compound | TGI
14 | COc1cc(Cl)cc(-c2nn(-c3cccc(NC(=O)Nc4ccc(Cl)c(Cl)c4)c3)cc2-c2ccncc2)c1 | 87.1 µM

System: RPMI-8226
Experiment: Growth inhibition of human RPMI8226 cells assessed as cell growth at 0.01 uM incubated for 48 hrs by sulforhodamine B assay relative to control
Assay type: functional
Details: RPMI-8226, 48 h, read-out: Activity

Row | Compound | growth at 0.01 µM
15 | COc1cc(Cl)cc(-c2nn(-c3cccc(NC(=O)Nc4ccc(Cl)c(Cl)c4)c3)cc2-c2ccncc2)c1 | 99%

System: NCI/ADR-RES
Experiment: Growth inhibition of human NCI/ADR-RES cells assessed as cell growth at 100 uM incubated for 48 hrs by sulforhodamine B assay relative to control
Assay type: functional
Details: read-out: Activity

Row | Compound | growth at 100 µM
16 | COc1cc(Cl)cc(-c2nn(-c3cccc(NC(=O)Nc4ccc(Cl)c(Cl)c4)c3)cc2-c2ccncc2)c1 | -3%

System: A549
Experiment: Growth inhibition of human A549/ATCC cells assessed as cell growth at 1 uM incubated for 48 hrs by sulforhodamine B assay relative to control
Assay type: functional
Details: A549, 48 h, read-out: Activity

Row | Compound | growth at 1 µM
17 | COc1cc(Cl)cc(-c2nn(-c3cccc(NC(=O)Nc4ccc(Cl)c(Cl)c4)c3)cc2-c2ccncc2)c1 | 82%

System: MCF7
Experiment: Growth inhibition of human MCF7 cells assessed as cell growth at 100 uM incubated for 48 hrs by sulforhodamine B assay relative to control
Assay type: functional
Details: MCF7, 48 h, read-out: Activity

Row | Compound | growth at 100 µM
18 | COc1cc(Cl)cc(-c2nn(-c3cccc(NC(=O)Nc4ccc(Cl)c(Cl)c4)c3)cc2-c2ccncc2)c1 | -13%

System: A498
Experiment: Growth inhibition of human A498 cells assessed as cell growth at 0.1 uM incubated for 48 hrs by sulforhodamine B assay relative to control
Assay type: functional
Details: A498, 48 h, read-out: Activity

Row | Compound | growth at 0.1 µM
19 | COc1cc(Cl)cc(-c2nn(-c3cccc(NC(=O)Nc4ccc(Cl)c(Cl)c4)c3)cc2-c2ccncc2)c1 | 58%

System: NCI/ADR-RES
Experiment: Growth inhibition of human NCI/ADR-RES cells assessed as cell growth at 0.01 uM incubated for 48 hrs by sulforhodamine B assay relative to control
Assay type: functional
Details: read-out: Activity

Row | Compound | growth at 0.01 µM
20 | COc1cc(Cl)cc(-c2nn(-c3cccc(NC(=O)Nc4ccc(Cl)c(Cl)c4)c3)cc2-c2ccncc2)c1 | 97%

System: SK-MEL-28
Experiment: Growth inhibition of human SK-MEL-28 cells assessed as cell growth at 1 uM incubated for 48 hrs by sulforhodamine B assay relative to control
Assay type: functional
Details: SK-MEL-28, 48 h, read-out: Activity

Row | Compound | growth at 1 µM
21 | COc1cc(Cl)cc(-c2nn(-c3cccc(NC(=O)Nc4ccc(Cl)c(Cl)c4)c3)cc2-c2ccncc2)c1 | 87%

System: PC-3
Experiment: Growth inhibition of human PC3 cells assessed as cell growth at 1 uM incubated for 48 hrs by sulforhodamine B assay relative to control
Assay type: functional
Details: PC-3, 48 h, read-out: Activity

Row | Compound | growth at 1 µM
22 | COc1cc(Cl)cc(-c2nn(-c3cccc(NC(=O)Nc4ccc(Cl)c(Cl)c4)c3)cc2-c2ccncc2)c1 | 54%

System: SW-620
Experiment: Growth inhibition of human SW620 cells assessed as cell growth at 0.01 uM incubated for 48 hrs by sulforhodamine B assay relative to control
Assay type: functional
Details: SW-620, 48 h, read-out: Activity

Row | Compound | growth at 0.01 µM
23 | COc1cc(Cl)cc(-c2nn(-c3cccc(NC(=O)Nc4ccc(Cl)c(Cl)c4)c3)cc2-c2ccncc2)c1 | 100%
